Measurements published in patent publication US20200405666A9, “TREATMENT OF SYMPTOMS ASSOCIATED WITH FEMALE GASTROPARESIS” (priority 2011, published 2020).

Tested on: symptoms of diabetic gastroparesis
Experiment: Phase 2 randomized, double-blind, placebo-controlled study METO-IN-002 of metoclopramide nasal spray: symptom scores (mGCSI-DD, GCSI-DD, PAGI-SYM, other endpoints)
Format: in vivo, human
Parameters: key to Stomach Fullness / Early Satiety / Feeling Full / Loss of Appetite / Bloating / Stomach Larger / Upper Abdominal Pain / Upper Abdominal Discomfort / mGCSI-DD (primary endpoint) / Nausea / Retching / Vomiting / Sheehan Disability Scales / Investigator Assessment of Overall Gastroparesis Severity / Subject Assessment of Overall Gastroparesis Severity / Investigator Assessment of Overall Treatment Effect / Subject Assessment of Overall Treatment Effect / Days w/o Vomiting / Days w/o Nausea / Days w/o Vomiting or Nausea / Days w/o Upper Abdominal Pain or Upper Abdominal Discomfort / Nausea Response by Response Threshold / GCSI-DD / Days w/o Vomiting or Retching &, No Use of Rescue Medication / Nausea Responder Analysis / Overall Severity of Gastroparesis Symptoms - Subject / PAGI-SYM Questionnaire / Nausea/Vomiting (listed under PAGI-SYM Questionnaire) / Bloating (listed under PAGI-SYM Questionnaire) / Upper Abdominal Pain/Discomfort (listed under PAGI-SYM Questionnaire) / Early Satiety (listed under PAGI-SYM Questionnaire): A=Favors Active; P=Favors Placebo
Details: for Statistically significant improvement in mGCSI-DD score (in words): 10 mg IN and 14 mg IN arms, Baseline to Week 4
Method: Example 1: A Multicenter, Randomized, Double-Blind, Placebo-Controlled, Parallel Group, Dose-Ranging Clinical Study to Evaluate the Efficacy and Safety of Metoclopramide Nasal Spray Solution in Diabetic Subjects with Gastroparesis
The objectives of this study were to evaluate the safety and the effectiveness of two doses of metoclopramide nasal spray solution, 10 mg and 14 mg, compared to placebo in reducing the symptoms of diabetic gastroparesis and to assess the plasma concentrations of two doses of metoclopramide nasal spray in subjects with diabetic gastroparesis following a single dose and at steady state. The aforementioned dosages for the treatment and control of gastroparesis were administered before meals and/or before bed time. Subjects who met the entry criteria after the Washout Period (Day −7 to Day −1) were randomized using an IVRS, to metoclopramide nasal spray 10 mg, 14 mg, or placebo, in roughly equal numbers (approximately 1:1:1) using a predetermined randomization schedule employing permuted blocks. Randomization was preformed centrally.
Metoclopramide nasal spray solution, 200 mg/mL base (as monohydrochloride monohydrate) is a clear colorless to pale-yellow aqueous solution manufactured for Evoke Pharma. The metoclopramide nasal spray was packaged in a 10 mL amber glass vial mounted with a metered nasal spray pump. The metered dose vial delivered a 50 μL or 70 μL spray (10 mg or 14 mg of metoclopramide base respectively) with each actuation. One 10 mL vial contained sufficient metoclopramide nasal spray to deliver 120 doses of 10 mg or 14 mg.
A vehicle control was used as the placebo for metoclopramide nasal spray solution. The placebo spray was packaged in a 10 mL amber glass vial mounted with a metered nasal spray pump. The metered dose vial delivered a 50 μL spray with each actuation. One 10 mL vial contained sufficient placebo to deliver 120 doses. The delivery of either a 50 μL or 70 μL spray is indistinguishable to the subject or study staff.
A 7-day Washout Period preceded randomization. During this time, and for the duration of the study, subjects were asked to discontinue use of all medications that are known to ameliorate or exacerbate symptoms associated with diabetic gastroparesis. Subjects were trained on the use of an interactive voice response system (IVRS) to record the severity of nine gastroparesis symptoms of the GCSI-DD and additional symptoms such as: severity of abdominal pain and abdominal discomfort, number of hours of nausea, number of episodes of vomiting, and overall severity of gastroparesis symptoms in a daily diary. The IVRS was used during the treatment period for self-reported assessments. Subjects completed these diary assessments via the IVRS each evening.
Subjects with a mean GCSI-DD total score of <2.0 or >4.0 during the 7-day Washout Period were excluded from the study.
At the Randomization Visit (Day 0), the Patient Assessment of Upper Gastrointestinal Disorders Symptoms (PAGI-SYM) Questionnaire, and disability questionnaires were administered to the subject and the Investigator and subject assessed overall gastroparesis symptom severity (OGS) prior to taking study drug. Subjects began taking the study drug at the clinical site with a single dose on Day 0. The subjects returned to the clinic for safety and efficacy evaluations on Visits 4, 5, 6, and 7 (Days 7, 14, 21, and 28).
At each scheduled study visit to the clinical study site, the IVRS daily diary compliance was reviewed. In addition, at Visit 5 (Day 14), the PAGI-SYM Questionnaire was administered to the subject and the Investigator and subject assessed OGS severity. At the Final Visit (Day 28) subjects took their last dose of study drug at the clinical site and returned their vial of unused/remaining study drug. The subject completed the PAGI-SYM, and disability questionnaires. The Investigator and subject assessed OGS and overall treatment effect (OTE). […]

[1] = all subjects (ITT), 10 mg IN four times daily
[2] = all subjects (ITT), 14 mg IN four times daily
[3] = females, 10 mg IN four times daily
[4] = females, 10 mg IN four times daily, Week 4, vs placebo
[5] = females, 10 mg IN four times daily, listed as Metoclopramide
[6] = females, 14 mg IN four times daily
[7] = females, 14 mg IN four times daily, Week 4, vs placebo

CCN(CC)CCNC(=O)c1cc(Cl)c(N)cc1OC [metoclopramide, -amino-5-chloro-N-(2-(diethylamino)ethyl)-2-methoxybenzamide]
Mean Change from Baseline to Week 4 in mGCSI-DD [1]: −1.2
Mean mGCSI-DD total score at Week 4 [1]: 1.6
Mean Change from Baseline to Week 4 in mGCSI-DD [2]: −1.2
Mean mGCSI-DD total score at Week 4 [2]: 1.7
Statistically significant improvement in mGCSI-DD score (in words) (all subjects): neither Treatment Arm experienced statistically significant improvement
Difference of Least Square Means, mGCSI-DD change from Baseline to Week 4 (all subjects, 10 mg IN vs placebo): −0.20
Difference of Least Square Means, mGCSI-DD change from Baseline to Week 4 (all subjects, 14 mg IN vs Metoclopramide 10 mg): 0.06
Difference of Least Square Means, mGCSI-DD change from Baseline to Week 4 (all subjects, 14 mg IN vs placebo): −0.14
Symptoms with statistical separation or improved trends compared to placebo (female subjects, 11 symptoms collected): 11 of 11
Statistically significant improvement in mGCSI-DD score (in words) (females): statistically significant improvement
Mean Change from Baseline to Week 4 in mGCSI-DD [3]: −1.2 (−1.2)
Mean mGCSI-DD total score at Week 4 [3]: 1.6 (1.6)
Bloating [4]: A
Bloating (listed under PAGI-SYM Questionnaire) [4]: A
Days w/o Nausea [4]: A (p < 0.05)
Days w/o Upper Abdominal Pain or Upper Abdominal Discomfort [4]: A
Days w/o Vomiting [4]: A
Days w/o Vomiting or Nausea [4]: A (p < 0.05)
Days w/o Vomiting or Retching &, No Use of Rescue Medication [4]: A
Early Satiety [4]: A
Early Satiety (listed under PAGI-SYM Questionnaire) [4]: A
Feeling Full [4]: A (p < 0.05)
GCSI-DD [4]: A (p < 0.05)
Investigator Assessment of Overall Gastroparesis Severity [4]: A
Investigator Assessment of Overall Treatment Effect [4]: P
Loss of Appetite [4]: A
Nausea [4]: A (p < 0.05)
Nausea Responder Analysis [4]: A
Nausea Response by Response Threshold [4]: A (p < 0.05)
Nausea/Vomiting (listed under PAGI-SYM Questionnaire) [4]: A
Overall Severity of Gastroparesis Symptoms - Subject [4]: A (p < 0.05)
PAGI-SYM Questionnaire [4]: A
Retching [4]: A
Sheehan Disability Scales [4]: A
Stomach Fullness [4]: A
Stomach Larger [4]: A
Subject Assessment of Overall Gastroparesis Severity [4]: A
Subject Assessment of Overall Treatment Effect [4]: A
Upper Abdominal Discomfort [4]: A
Upper Abdominal Pain [4]: A (p < 0.05)
Upper Abdominal Pain/Discomfort (listed under PAGI-SYM Questionnaire) [4]: A
Vomiting [4]: A
mGCSI-DD (primary endpoint) [4]: A (p < 0.05)
Mean Change from Baseline to Week 4 in mGCSI-DD [5]: −1.2
Mean mGCSI-DD total score at Week 4 [5]: 1.6
Difference of Least Square Means, mGCSI-DD change from Baseline to Week 4 (females, 10 mg IN vs placebo): −0.38
Mean Change from Baseline to Week 4 in mGCSI-DD [6]: −1.3
Mean mGCSI-DD total score at Week 4 [6]: 1.7 (1.7)
Bloating [7]: A
Bloating (listed under PAGI-SYM Questionnaire) [7]: A
Days w/o Nausea [7]: A (p < 0.05)
Days w/o Upper Abdominal Pain or Upper Abdominal Discomfort [7]: P
Days w/o Vomiting [7]: A
Days w/o Vomiting or Nausea [7]: A (p < 0.05)
Days w/o Vomiting or Retching &, No Use of Rescue Medication [7]: A
Early Satiety [7]: A
Early Satiety (listed under PAGI-SYM Questionnaire) [7]: A
Feeling Full [7]: A
GCSI-DD [7]: A (p < 0.05)
Investigator Assessment of Overall Gastroparesis Severity [7]: A
Investigator Assessment of Overall Treatment Effect [7]: A
Loss of Appetite [7]: A
Nausea [7]: A (p < 0.05)
Nausea Responder Analysis [7]: A (p < 0.05)
Nausea Response by Response Threshold [7]: A (p < 0.05)
Nausea/Vomiting (listed under PAGI-SYM Questionnaire) [7]: A (p < 0.05)
Overall Severity of Gastroparesis Symptoms - Subject [7]: A
PAGI-SYM Questionnaire [7]: A
Retching [7]: A
Sheehan Disability Scales [7]: A
Stomach Fullness [7]: A
Stomach Larger [7]: A (p < 0.05)
Subject Assessment of Overall Gastroparesis Severity [7]: A
Subject Assessment of Overall Treatment Effect [7]: A
Upper Abdominal Discomfort [7]: A
Upper Abdominal Pain [7]: A (p < 0.05)
Upper Abdominal Pain/Discomfort (listed under PAGI-SYM Questionnaire) [7]: A
Vomiting [7]: A
